Results on six molecules are retold here after patent US12398180B2, “Treatment of non-alcoholic fatty liver disease” (NURITAS LIMITED, priority 2019, dated 2025).

Read-outs that look alike come from different tables or passages of the source. Square brackets hold non-standard residues; d marks the D form. Peptide text beside a SMILES is read from it.

Data set [1] has as its system human skeletal muscle cells. The data set can be described thus: Glucose uptake in skeletal muscle cells. It counts as cell-based. The settings on record: compared with control (FIG. 5).
A further data set can be described thus: PK profile (half-life). The settings on record: in vivo.
Another data set has as its system Human primary cells. The data set can be described thus: Cytotoxicity in primary human cell-based systems (SRB / alamarBlue). The settings on record: at the concentration tested. On the procedure:
Systems are derived from either single cell types or co-culture systems. Adherent cell types are cultured in 96 or 384-well plates until confluence, followed by the addition of PBMC (SAg and LPS systems). The BT system consists of CD19+ B cells co-cultured with PBMC and stimulated with a BCR activator and low levels of TCR stimulation. Test agents prepared in either DMSO (small molecules; final concentration s 0.1%) or PBS (biologics) are added at the indicated concentrations 1-hr before stimulation, and remain in culture for 24 h or as otherwise indicated (48 h, MyoF system; 72 h, BT system (soluble readouts); 168 h, BT system (secreted IgG)). […] Soluble factors from supernatants are quantified using either HTRF® detection, bead-based multiplex immunoassay or capture ELISA. Overt adverse effects of test agents on cell proliferation and viability (cytotoxicity) are detected by sulforhodamine B (SRB) staining, for adherent cells, and alamarBlue® reduction for cells in suspension. For proliferation assays, individual cell types are cultured at subconfluence and measured at time points optimized for each system (48 h: 3C and CASM3C systems; 72 h: BT and HDF3CGF systems; 96 h: SAg system). […]

A further data set concerns C57BL/6 mice. The data set can be described thus: Acetaminophen (APAP)-induced acute liver injury mouse model, ALT/AST. It counts as in vivo. The settings on record: inferred from ALT/AST time course.
For data set [2] the following is noted: in humans; cited from earlier work.
A further data set concerns lipoproteins. The settings on record: binding to lipoproteins; cited from earlier work.
Data set [3] has as its system primary human hepatic stellate cells. In words: Anti-fibrotic effect in TGF-β stimulated primary hepatic stellate cells (ACTA2 staining). The settings on record: 10 μM. It counts as cell-based. As to the method:
The procedure was performed as described above for the CY5 labelled peptide imaging in HSkMCs with a few minor modifications. Primary hepatic stellate cells were investigated as they are considered to be the most relevant profibrogenic cells operating in acute and chronic liver diseases. The stellate cells were seeded directly onto the glass coverslips at a density of 5,000 cells/mL. After starvation, the cells were treated with pep_1E99R5 (5 ng/mL) or Elafibranor (10 μM) for 6 hours. The cells were washed and subsequently treated with 5 ng/ml […] (Bio Techne, Minneapolis, MN, United States) for 24 hours to induce fibrosis. The cells were fixed and stained with ACTA2 antibody (Assay Genie, Dublin, Ireland), a marker of fibroblast activation.
The confocal images were analysed with custom Python scripts using the scikit-image library version 0.15. The cells and nuclei were segmented using a simple threshold computed using the mean value of the image. Using the Nuclei as a seed we separated the cells in the cell mask using watershed segmentation. Cell size was then quantified in pixels. [Stéfan van der Walt, Johannes L. Schönberger, Juan Nunez-Iglesias, Frangois Boulogne, Joshua D. Warner, Neil Yager, Emmanuelle Gouillart, Tony Yu and the scikit-image contributors. scikit-image: Image processing in Python. PeerJ 2:e453 (2014)

Experimental for C57BL/6 mice: Animals for Acetaminophen (APAP)-induced Acute Liver Injury Mouse Model: All animal procedures were performed by Melior Discovery (Exton, PA, USA) in accordance with Institutional Animal Care and Use (IACUC) guidelines in an AAALAC-accredited facility. […] Studies were performed with 8-week-old male C57BL/6 mice obtained from the Charles River Laboratory and were randomly assigned to the treatment groups based on body mass. Mice were acclimated for 7 days and housed 4 per cage on a 12-hour light/dark cycle with ad libitum access to standard rodent chow and water.

As for “1(clac)wKE(Me)EC1GK(Me)PLVk-OH (Ac-[dW]KEXCGKXLV[dK]-OH; thioether (positions not given here); not fully specified (residues 4, 8, bridges); printed as 1(clac)wKE(Me)EC1GK(Me)PLVk-OH) [SEQUENCE ID NO: 3]”, in data set [1], the “glucose uptake in human skeletal muscle cells in-vitro” value is recorded as “significantly increases”. In addition, the stability in-vivo result in “Stability in-vivo” is reported as “enhanced stability”.
In the data set “PK profile (half-life)”, `CC(C)C[C@H](NC(=O)[C@@H]1CCCN1C(=O)[C@H](CCCCN)NC(=O)CNC(=O)[C@@H](C)NC(=O)[C@H](CCC(=O)O)NC(=O)[C@H](CC(=O)O)NC(=O)[C@@H](CCCCN)NC(=O)[C@H](N)Cc1c[nH]c2ccccc12)C(=O)N[C@@H](C(=O)N[C@H](CCCCN)C(=O)O)C(C)C` [SEQ ID 2, {d}W{d}KDE{d}AGKPL{d}V{d}K] (H-[dW][dK]DE[dA]GKPL[dV][dK]-OH; N-terminus and C-terminus assumed) returned a half-life of 1.55 h.
In the case of `CC(C)C[C@H](NC(=O)[C@@H]1CCCN1C(=O)[C@H](CCCCN)NC(=O)CNC(=O)[C@H](C)NC(=O)[C@H](CCC(=O)O)NC(=O)[C@H](CC(=O)O)NC(=O)[C@H](CCCCN)NC(=O)[C@@H](N)Cc1c[nH]c2ccccc12)C(=O)N[C@H](C(=O)N[C@@H](CCCCN)C(=O)O)C(C)C` [pep_260] (H-WKDEAGKPLVK-OH; N-terminus and C-terminus assumed), the cytotoxicity entry in the data set with Human primary cells is “not cytotoxic”. In the data set on C57BL/6 mice, the “duration of potent functionality in mice” value stood at 2 h.
Take `NC(=O)CC[C@@H]1NC(=O)[C@H](Cc2ccccc2)NC(=O)[C@H](Cc2ccc(O)cc2)NC(=O)[C@@H](N)CSSC[C@@H](C(=O)N2CCC[C@H]2C(=O)N[C@@H](CCCN=C(N)N)C(=O)NCC(N)=O)NC(=O)[C@H](CC(N)=O)NC1=O` [vasopressin]: the half-life in data set [2] is 0.167 to 0.583 h.
On to `C[C@@H](O)[C@@H]1NC(=O)[C@H](CCCCN)NC(=O)[C@@H](Cc2c[nH]c3ccccc23)NC(=O)[C@H](Cc2ccccc2)NC(=O)[C@@H](NC(=O)[C@H](N)Cc2ccccc2)CSSC[C@@H](C(=O)N[C@H](CO)[C@@H](C)O)NC1=O` [octreotide], for which the half-life result in data set [2] is reported as “about 100 min”. Besides, the fraction unbound in the data set on lipoproteins is 0.65.
Consider `CSc1ccc(C(=O)/C=C/c2cc(C)c(OC(C)(C)C(=O)O)c(C)c2)cc1` [Elafibranor], for which the “anti-fibrotic effect in stimulated stellate cells” value in data set [3] is “anti-fibrotic effects”.
